How the values were obtained:
[1] = test system: AAV-A53T injected C57BL/6J mice; assay: AAV-α-syn A53T-injected mouse model; assay type: in vivo
Method: Male C57BL/6J mice (7 week-age-old) were used for inducing the α-syn A53T model and treating Vuti and vehicle. All mice were maintained in a specific pathogen-free animal facility under a 12:12-h light-dark cycle (lights on at 8:00 AM) at a temperature of 21℃ and allowed ad libitum access to food and water. All experiments and animal care were performed in accordance with the guidelines of the Institutional Animal Care and Use Committee (IACUC) of IBS, Daejeon, South Korea (IBS-IBC-2022-12). Mice were anesthetized under isoflurane anesthesia (induction: 3%–4%, maintenance: 1.5%–2%) and placed into stereotaxic (RWD, China). For establishing the α-syn A53T mouse model, 2µL of AAV-CMV-A53T-Asyn or AAV-CMV-EGFP (5 × 10^12 genomic copies/mL, packaged by the IBS virus facility) was injected into the SNpc (AP − 3.2 mm, ML ± 1.3 mm, DV − 4.0 mm relative to the bregma; 0.2µL/min) bilaterally. Oral administration of 50 mg/kg Vuti (Vuti 50) or the vehicle (Veh) was started 5 weeks after the virus injection, once a day for 12 weeks. Mice were used for behavior tests and immunostaining after completing drug treatment. Vertical grid test was performed as described before. For 5 days, mice were allowed for habituation in the test room. Prior to the trial session, the mice were acclimated to the vertical grid for 2 days. For the experiment, individual mice were gently placed 3 cm from the top, facing upward, and allowed to turn around and climb down. […] Starting from the fourth week after the injection, trials are conducted at two-week intervals.
Mice were deeply anaesthetized with isoflurane and perfused transcranial with 0.9% saline ice-cold 4% paraformaldehyde (PFA). Excised brains were postfixed at 4 °C overnight and transferred to 30% sucrose for 48 h for dehydration. Coronal sections of 30 μm thickness (20 μm thickness for super-resolution imaging) were prepared in a cryostat and stored in a storage solution at 4 °C. Brain tissues were washed in PBS and incubated in a blocking solution (0.3% Triton X-100, 2% Donkey Serum, 2% Goat Serum in 0.1 M PBS). Primary antibodies were added to the blocking solution at desired dilution and the sections were incubated in a shaker at 4 °C overnight. Primary antibodies used for immunostaining were anti-TH (rabbit, 1:200, Pel-freez, P40101-150), GFAP (chicken, 1:500, Millipore, AB5541), Iba-1 (rabbit, 1:500, Wako, 019-19741), DDC (rabbit, 1:200, abCam, ab3905), GABA (guinea pig, 1:200, Millipore, AB175), anti-PON2 (rabbit, 1:200, abCam, ab183710). Unbound antibodies were washed off using PBS, followed by corresponding secondary antibody incubation (in blocking solution) for 1–2 h at room temperature. Unbound antibodies were washed with PBS and DAPI was added to PBS (1:1500 dilution). Sections were mounted with fluorescent mounting medium (Dako) and dried. A series of fluorescent images were obtained using Zeiss LSM900 confocal microscope. Super-resolution image for PON2 signals imaged by Zeiss Lattice SIM (Structure-illumination microscope) and all images were processed using ImageJ (Fiji) software.

PON2 = biological target: T1, PON2 (Mus musculus, UniProt Q62086); assay: PON2 activity assay (esterase and lactonase) in A53T-infected astrocytes; assay type: cell-based; conditions: primary cultured astrocytes infected with A53T virus, Vuti 24 h
T1 construct: we infected a primary cultured cortical astrocytes with AAV-CMV-αsyn-A53T virus; endogenous in cells; host or cells: primary cultured cortical astrocytes infected with AAV-CMV-αsyn-A53T
Method: To assess PON2 activity following Vuti treatment, we infected a primary cultured cortical astrocytes with AAV-CMV-αsyn-A53T virus. Five days post-infection, we treated the cells with Vuti for 24 h and conducted esterase and lactonase assays. For the esterase activity evaluation, reactions were initiated by adding 1 mM p-nitrophenyl acetate (pNPA) to the PON2 activity assay buffer. Enzymatic hydrolysis was monitored by measuring the absorbance at 412 nm. For lactonase activity, the reactions were initiated with 1 mM thio-butyrolactone (TBBL) and 1 mM 5,5’-dithiobis(2-nitrobenzoic acid) (DTNB) in the PON2 activity assay buffer, with absorbance measured at 420 nm to monitor enzymatic hydrolysis.

CCOc1ccc(C2COc3c(ccc4c3CCC(C)(C)O4)C2)c(O)c1 (stereo not drawn) [Vuti, Vutiglabridin]
GFAP and Iba1 levels (astrocytes and microglia) ([1]; A53T mice, Vuti 50 mg/kg): normalization
amount of GABA in astrocytes ([1]; A53T mice, Vuti 50 mg/kg): decrease
intracellular α-syn levels ([1]; A53T mice, Vuti 50 mg/kg): decreased
step failure in the vertical grid test ([1]; A53T mice, Vuti 50 mg/kg oral from week 5, within 5 to 7 weeks of administration (weeks 10-12)): statistically significant improvements
DDC-positive cells in SNpc ([1]; A53T mice, Vuti 50 mg/kg, 12 weeks after AAV-A53T injection): significantly increased
TH-positive cells in SNpc ([1]; A53T mice, Vuti 50 mg/kg, 12 weeks after AAV-A53T injection, vs vehicle): significant increase
PON2 protein level ([1]; A53T mouse model and WT + Vuti group, IHC and Western blot): remained unchanged
TH+/DDC+ ratio ([1]; α-syn A53T overexpressed PD model): doubled
PON2 esterase and lactonase activities (PON2): increased

Reference: publication PMC12535076, “Neurotherapeutic effects of Vutiglabridin as a Paraoxonase-2 modulator in preclinical models of Parkinson’s disease” (Molecular Neurodegeneration, 2025)
